Source: patent publication US9238005B2, “Dry powder formulations and methods for treating pulmonary diseases” (Pulmatrix Operating Company, Inc., priority 2009, dated 2016)

How the values were obtained:
[1] = Heat of solution in HBSS buffer; format: physicochemical; settings: Avg.; for ΔH (kJ/mol) / ΔH (kcal/mol): HBSS buffer, per mol Ca, leucine per mol Leu; for Q / ΔT (deg. C): dissolution in HBSS buffer
[2] = Volume median geometric diameter (x50/VMGD) and GSD by laser diffraction, HELOS/RODOS; format: physicochemical
Description: Volume median diameter (×50), which may also be referred to as volume median geometric diameter (VMGD), was determined using a laser diffraction technique. […] The RODOS disperser applies a shear force to a sample of particles, controlled by the regulator pressure (typically set at 1.0 bar with orifice ring pressure set at 7 mbar) of the incoming compressed dry air. […] The dispersed particles travel through a laser beam where the resulting diffracted light pattern produced is collected, typically using an R2 lens, by a series of detectors.

[3] = Fine particle fraction, two-stage collapsed Andersen Cascade Impactor (ACI-2); settings: spray dried from 70% ethanol, 50 g/L
[4] = Dispersibility from passive dry powder inhalers (CEPM, Dv50, FPF vs inhalation energy); format: physicochemical; settings: for average CEPM, share of capsule fill weight: 9.2 Joules (60 L/min for 2 L); for average Dv50: 9.2 Joules; for Dv50: measured lower energies
Description: The dispersibility of various powder formulations was investigated by measuring the geometric particle size and the percentage of powder emitted from capsules when inhaling on dry powder inhalers with flow rates representative of patient use. The particle size distribution and weight change of the filled capsules were measured for multiple powder formulations as a function of flow rate, inhaled volume and fill weight in 2 passive dry powder inhalers.
In order to relate the dispersion of powder at different flow rates, volumes, and from inhalers of different resistances, the energy required to perform the inhalation maneuver was calculated and the particle size and dose emission data plotted against the inhalation energy. Inhalation energy was calculated as E=R^2Q^2V where E is the inhalation energy in Joules, R is the inhaler resistance in kPa^1/2/LPM, Q is the steady flow rate in L/min and V is the inhaled air volume in L.

[5] = high resistance RS-01, 25 mg fill weight
[6] = high resistance RS-01, 40 mg fill weight
[7] = RS.01.HR, fill 25 mg, 15 LPM, 4 s, 0.29 J
[8] = RS.01.HR, fill 25 mg, 20 LPM, 3 s, 0.51 J
[9] = RS.01.HR, fill 25 mg, 30 LPM, 2 s, 1.15 J
[10] = RS.01.HR, fill 25 mg, 60 LPM, 2 s, 9.18 J
[11] = RS.01.HR, fill 40 mg, 15 LPM, 4 s, 0.29 J
[12] = RS.01.HR, fill 40 mg, 20 LPM, 3 s, 0.51 J
[13] = RS.01.HR, fill 40 mg, 30 LPM, 2 s, 1.15 J
[14] = RS.01.HR, fill 40 mg, 60 LPM, 2 s, 9.18 J
[15] = RS.01.LR, fill 25 mg, 60 LPM, 2 s, 2.85 J
[16] = RS.01.LR, fill 40 mg, 60 LPM, 2 s, 2.85 J
[17] = all measured lower energies (<9.2 Joules), 25 and 40 mg fill weights

O.O.[Ca+2].[Cl-].[Cl-] [CaCl2.2H2O]
ΔH (kJ/mol) [1]: -50.6 kJ/mol
ΔH (kcal/mol) [1]: -12.1 kcal/mol
Q [1]: 2.93 cal
ΔT (deg. C) [1]: 0.024 deg. C

CC(C)C[C@H](N)C(=O)O [Leucine]
ΔH (kJ/mol) [1]: -6 kJ/mol
ΔH (kcal/mol) [1]: -1.5 kcal/mol
Q [1]: 0.37 cal
ΔT (deg. C) [1]: 0.003 deg. C

[Cl-].[Cl-].[Mg+2] [Pure magnesium chloride, magnesium chloride]
median volume particle size ([2]; spray dried from 70% ethanol, 50 g/L): 4 microns
median particle size (HELOS/RODOS) ([2]; spray dried from D.I. water, 20 g/L): 21 microns
fine particle fraction less than 5.6 microns [3]: 19%

albuterol sulfate [Micronized Albuterol 073-001-02-039A]
average CEPM, share of capsule fill weight [4, 5]: 93%
average CEPM, share of capsule fill weight [4, 6]: 84%
average Dv50 [4, 5]: 1.8 μm
average Dv50 [4, 6]: 1.6 μm
Mean CEPM [4, 7]: 3.12 mg
Mean Dv50 [4, 7]: 16.76 μm
Mean FPF, % < 5 μm [4, 7]: 13.00%
Mean CEPM [4, 8]: 5.00 mg
Mean Dv50 [4, 8]: 8.40 μm
Mean FPF, % < 5 μm [4, 8]: 32.10%
Mean CEPM [4, 9]: 7.08 mg
Mean Dv50 [4, 9]: 3.86 μm
Mean FPF, % < 5 μm [4, 9]: 59.44%
Mean CEPM [4, 10]: 23.18 mg
Mean Dv50 [4, 10]: 1.77 μm
Mean FPF, % < 5 μm [4, 10]: 81.65%
Mean CEPM [4, 11]: 2.43 mg
Mean Dv50 [4, 11]: 17.63 μm
Mean FPF, % < 5 μm [4, 11]: 10.73%
Mean CEPM [4, 12]: 4.97 mg
Mean Dv50 [4, 12]: 6.34 μm
Mean FPF, % < 5 μm [4, 12]: 42.24%
Mean CEPM [4, 13]: 8.55 mg
Mean Dv50 [4, 13]: 3.13 μm
Mean FPF, % < 5 μm [4, 13]: 67.18%
Mean CEPM [4, 14]: 33.40 mg
Mean Dv50 [4, 14]: 1.60 μm
Mean FPF, % < 5 μm [4, 14]: 84.30%
Mean CEPM [4, 15]: 15.28 mg
Mean Dv50 [4, 15]: 2.57 μm
Mean FPF, % < 5 μm [4, 15]: 75.01%
Mean CEPM [4, 16]: 18.88 mg
Mean Dv50 [4, 16]: 2.62 μm
Mean FPF, % < 5 μm [4, 16]: 73.98%
CEPM [4, 17]: below 10 mg
CEPM, share of capsule fill weight [4, 17]: < 30%
Dv50 ([4]; 25 mg fill weight): 3.9 μm
Dv50 ([4]; 40 mg fill weight): 3.1 μm
